Measurements reported in US11207301B2, “Sphingosine 1 phosphate receptor agonists for neuroprotection” (RECEPTOS LLC, priority 2017, dated 2021).

Experiments:
Assay type in all cases: cell-based
[1] = system: AKT phosphorylation in primary rat astrocytes; test: AKT phosphorylation in primary rat astrocytes (MSD pAKT assay); conditions: Astrocyte, 10 min, 10-minute exposure, mean of n=4
Protocol: (§1) For the experiments using rat primary astrocytes, eight-point concentration-response curves were generated for AKT and ERK phosphorylation in primary rat astrocytes cultures in response to a 10-minute treatment with ozanimod (100 nM-46 pM), Compound 3 (10 nM-5 pM), Compound 1 (10 nM-5 pM), or FTY720-P (10 nM-5 pM). Phosphorylation of AKT and ERK was quantified using Meso Scale Discovery assay kits (MSD Mutli-Spot Phopho-AKT (Ser473) Assay Kit and MSD Multi-Spot MAP Kinase Phosphoprotein Assay Whole Cell Lysate Kit) and imaging platform. AKT and ERK phosphorylation within treated astrocytes were assessed as the mean change in signal intensity compared to DMSO vehicle and the half maximal effective concentration (EC50) was determined using non-linear regression.
(§2) Embryonic day18 (E18) rat cortices were purchased from BrainBits LLC. (Springfield, Ill.) and were cultured according to the supplier's protocol. Briefly, cortices were incubated at 37° C. for 10 minutes in activated papain solution before trituration in hibernation medium containing B27 supplement using a modified siliconized glass Pasteur pipette. The cell suspension was centrifuged at 1100×g for 1 minute at room temperature (RT). The cell pellet was then resuspended in NbAstro medium (BrainBits LLC.) and the live cell density was assessed using a cell counter. Primary cells were plated at a density of 7500 cells/cm2 in T75 tissue culture flasks coated with poly-D-lysine (PDL) in a total volume of 12 mL of NbAstro media, and incubated for 10-14 days at 37° C. 5% CO2. After 10-14 days, primary astrocytes in passage 0 (P0) that had reached confluency in the T75 flasks were detached using TrypLE detachment reagent, pelleted at 300×g, and plated into poly-d-lysine coated T225 flasks in 20 mL of NbAstro media, and incubated for another 7 days at 37° C. 5% CO2. After 7 days, primary P1 astrocytes in confluent T225 flasks were detached using TrypLE detachment reagent, pelleted at 300×g, and plated intopoly-d-lysine coated 96-well plates at 10,000 cells per well in 200 μL of NbAstro media, and incubated for 7 days at 37° C. 5% CO2. After 7 days, P2 primary astrocytes were utilized for pAKT and pERK assays.
(§3) The pAKT (phosphorylated AKT) assay was performed according to the manufacturer's protocol. Briefly, MSD pAKT plates were blocked for 1-2 hours by adding 150 μL of blocker A prepared in 1× Tris wash buffer. […] Following antibody incubation, plates were washed three times with 150 μL of 1× Tris wash buffer and 1× read buffer (150 μL/well) was added. Finally, plates were read in the MSD imager platform to assess pAKT levels.
(§4) AKT and ERK phosphorylation data were analyzed by non-linear regression (GraphPad Prism, version 6) to determine the EC50 values.

[2] = system: ERK phosphorylation in primary rat astrocytes; test: ERK phosphorylation in primary rat astrocytes (MSD pERK assay); conditions: Astrocyte, 10 min, 10-minute exposure, mean of n=3
Protocol: as §1, §2
as §3, with “The pERK” for “The pAKT”, “(phosphorylated ERK)/pMAPkinase” for “(phosphorylated AKT)”, “MSD pERK/pMAPkinase” for “MSD pAKT”, “Finally, the” for “Finally,”, “assess the pERK” for “assess pAKT”
as §4

[3] = system: ERK phosphorylation in primary human astrocytes; test: ERK phosphorylation in primary human cortical astrocytes (AlphaLISA SureFire Ultra); conditions: Astrocyte, 10 min, 10-minute exposure, n=3-5
Protocol: For the experiments using mouse and human primary astrocytes, ten-point concentration-response curves (90 nM-4.57 pM or 30 nM-1.52 pM) were generated for AKT and/or ERK phosphorylation in primary human and mouse cortical astrocytic cultures in response to a 10-minute treatment with ozanimod, Compound 3, Compound 1, or FTY720-P. AKT and ERK phosphorylation were quantified using AlphaLISA SureFire Ultra Assay kits and the EnVision Plate Reader. AKT and ERK phosphorylation within treated astrocytes were expressed as the mean change in signal intensity compared to the dimethyl sulfoxide (DMSO) vehicle and the half maximal effective concentration (EC50) was determined using non-linear regression.
Primary human astrocytes were purchased from ScienCell Research Laboratories, Inc. and cultured according to the supplier's protocol. The astrocytes were obtained from the human cerebral cortex, cryopreserved at passage one, and delivered frozen. The frozen vials of cells were gently thawed in a 37° C. water bath. Once the contents of the vial were completely thawed, the cell solution was dispensed into a poly-L-lysine (PLL) coated T75 tissue culture flask with 16 mL of human Astrocyte Media, (ScienCell Research Laboratories, Inc.) and incubated at 37° C. 5% CO2. Once the human astrocytes had reached confluency in the T75 flask, they were detached using trypsin/EDTA 0.25%, pelleted at 300×g, split into two PLL coated T225 tissue culture flasks in 40 mL of astrocyte media, and incubated at 37° C. 5% CO2. Once the astrocytes reached confluency in the T225 flasks, they were detached using trypsin/EDTA 0.25% solution, pelleted at 300×g, plated into poly-D-lysine (PDL) coated 96-well plates at a density of 10,000 cells per well in 200 μL human Astrocyte Media, and incubated at 37° C. 5% CO2. Half of the media was replenished every 3-4 days. After 5-7 days of incubation, the P2 human astrocyte plates were utilized for the pERK and pAKT assays.
Cell lysis and detection of pERK were performed according to the PerkinElmer AlphaLISA SureFire Ultra p-ERK1/2 (Thr202/TYR 204) assay protocol. Astrocytes were lysed in the 96-well plate following a 10 minute incubation with compounds with shaking at RT. The astrocytic lysates (10 μL/well) were transferred into a 384-well OptiPlate. As specified by the assay protocol, an acceptor bead mix and a donor bead mix (5 μL/well for each) were added to the plate under subdued light. Plates were sealed with adhesive plate seals and incubated in the dark for 2 hours at RT. The plates were read on the EnVision Plate Reader to assess the pERK levels.
The AKT and ERK phosphorylation data, collected by a Perkin Elmer EnVision Microplate Reader, was analyzed by non-linear regression (GraphPad Prism, version 7.03) to determine the EC50 values.

EC50 [1] [nM]	EC50 [2] [nM]	EC50 [3] [nM]	SMILES
2.03	0.8	1.93	CC(C)Oc1ccc(-c2nc(-c3cccc4c3CC[C@@H]4NCCO)no2)cc1C#N [Ozanimod]
0.66	0.29	2.12	CC(C)Oc1ccc(-c2nc(-c3cccc4c3CCC4=O)no2)cc1C#N [Compound 1, 2-isopropoxy-5-(3-(1-oxo-2,3-dihydro-1H-inden-4-yl)-1,2,4-oxadiazol-5-yl)benzonitrile]
